The results in this text go back to patent USRE42274E1, “Cyclic peptide CXCR4 antagonists” (Eli Lilly and Company, priority 2007, dated 2011).

A short description of one data set: Half-life in mice. The settings on record: mouse, in vivo, read-out: half-life (T½) (converted). The method, then: (§1) Pharmacologic properties such as compound bioavailability, in vivo metabolic stability, and pharmacokinetic/pharmacodynamic properties can be determined by methods well known in the art of drug development. […] For example, in mice, the half-life (T½) of the compound of Example 58 is about 3 hours. With respect to pharmacodynamic properties, preferred compounds induce prolonged neutrophil and white blood cell mobilization in mice. For example, the compound of Example 25 induces a significant increase of neutrophils and white blood cells in peripheral blood for at least 6 hours after single dose subcutaneous administration at 5 mg/kg in mice.

The nature of data set [1]: In vivo metabolic stability in monkey. The conditions noted are these: up to 24 hours after administration. The method, then: as §1
Data set [2] can be described thus: In vivo metabolic stability in dog. The settings on record: up to 24 hours after administration. The method, then: as §1
The target in data set [3] is T1, human chemokine receptor CXCR2 (Homo sapiens, UniProt P25025).
T1 sequence (P25025 1-360): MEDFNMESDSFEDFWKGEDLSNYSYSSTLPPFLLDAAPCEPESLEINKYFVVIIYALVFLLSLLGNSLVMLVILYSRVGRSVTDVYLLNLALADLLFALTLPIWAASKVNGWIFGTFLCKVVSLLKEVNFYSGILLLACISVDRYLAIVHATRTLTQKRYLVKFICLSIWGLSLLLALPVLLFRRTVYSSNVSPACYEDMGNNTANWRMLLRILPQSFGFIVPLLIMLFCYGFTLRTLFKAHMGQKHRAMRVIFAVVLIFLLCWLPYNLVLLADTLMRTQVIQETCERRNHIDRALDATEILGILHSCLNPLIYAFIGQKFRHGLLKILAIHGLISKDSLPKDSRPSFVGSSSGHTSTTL
The data set is described as follows: Chemokine receptor binding selectivity assay, ligand binding. The source says:
Chemokine Receptor Binding Selectivity Assays
The binding selectivity of the present compounds for the CXCR4 receptor compared to that for other chemokine receptors, such as human CCR1, CCR2, CXCR2, or CXCR3, and other G-protein-coupled receptors, can be assessed in cells transfected with nucleic acid encoding and expressing such receptors, or in cells in which such receptors are endogenously expressed. Whole cells or membrane fragments can be used to assess competition of test compounds with the respective ligands for these receptors in a manner similar to that described above for the CXCR4/^125I-SDF-1α binding inhibition assay.

pKi: −log10 of the molar value. Counter-ions that a name gives are not always drawn. Bridge positions count the residues as written; N and C are the ends. Square brackets hold non-standard residues; d marks the D form. Peptide text beside a SMILES is read from it. 2Nal = N[C@@H](Cc1ccc2ccccc2c1)C(=O)O; Lys(iPr) = CC(C)NCCCC[C@H](N)C(=O)O

A word on the half-life: it is the time needed for the level to fall by half in the phase considered. As for `CC(C)NCCCC[C@@H]1NC(=O)[C@H](Cc2ccc(O)cc2)NC(=O)[C@H](Cc2ccccc2)NC(=O)CC[C@H](C(=O)N[C@@H](CCCNC(=N)N)C(N)=O)NC(=O)CNC(=O)[C@H](Cc2ccc3ccccc3c2)NC(=O)[C@@H](CCCNC(=N)N)NC1=O` [Example 58, cyclo[Phe-Tyr-Lys(iPr)-DArg-2Nal-Gly-DGlu]-Arg-NH2] (FY[Lys(iPr)][dR][2Nal]G[dE]R-NH2; lactam N-7), the half-life in the data set “Half-life in mice” was roughly 3 h.
What is called pKi is the negative decadic logarithm of the Ki, by convention in mol/L. On to `CC(C)NCCCC[C@H](NC(=O)[C@H]1CCC(=O)N[C@@H](Cc2ccccc2)C(=O)N[C@@H](Cc2ccc(O)cc2)C(=O)N[C@@H](CCCCNC(C)C)C(=O)N[C@H](CCCNC(=N)N)C(=O)N[C@@H](Cc2ccc3ccccc3c2)C(=O)NCC(=O)N1)C(N)=O` [Example 57a, cyclo[Phe-Tyr-Lys(iPr)-DArg-2Nal-Gly-DGlu]-Lys (iPr)-NH2.acetic acid salt] (FY[Lys(iPr)][dR][2Nal]G[dE][Lys(iPr)]-NH2; lactam N-7), for which the “metabolites in plasma and urine” value in data set [1] and in data set [2] was “no detectable metabolites” each time. The molecule also had a pKi in data set [3] of less than 4.14.
